Reference: patent US5646188A, “Polyamine derivatives of 1-aminoindan” (priority 1995, dated 1997)
Where two headings read alike, the source gives them in different places.

Legend:
[1] = system: Cultures of Dissociated Neonatal Rat Cerebellum; experiment: Reversal of NMDA Induced Cell Death in cultures of dissociated neonatal rat cerebellum; type: cell-based; settings: for PERCENT PROTECTION: cell survival minus the NMDA effect (30%); for viability at 0.1 µM: 0.100 μM + NMDA (1 mM, 3 hours); for viability at 0.005 µM: 0.005 μM + NMDA (1 mM, 3 hours); for viability at 0.01 µM: 0.010 μM + NMDA (1 mM, 3 hours)
Experimental: (§1) The cerebellum was aseptically dissociated from 6 or 7-day old rat pups and placed in a 15 ml sterile plastic conical tube containing 3 ml of Dulbecco's modified Eagle's medium (DMEM) with a high glucose concentration ([…]) and 2 mM (v/v) L-glutamine and an antibiotic antimitotic mixture. The cerebella were then dissociated after 20-25 passages through a sterile 13 gauge, 10 cm long stainless steel needle attached to a 5 ml syringe with an inserted 45 micrometer pore nylon sieve. The dissociated cells were centrifuged at 200 g for 5 minutes.
Cells were plated at a density of 200/mm^2 on poly-L-lysine coated surfaces. […] The plated cells were covered with enriched medium and incubated at 37° C. in an atmosphere of 5% CO2 in air and 97% humidity. […] Each test compound was tested in duplicate. Toxic-dose response was determined for each compound over a range from 0.005-1000 micromole. Four groups were run in each set of experiments;
I. Control, consisting of enriched media alone,
II. N-methyl-D-aspartate (NMDA, 1 mM for 3 hours) as the cytotoxic challenge,
III. Test compound plus NMDA, and
IV. Positive control, spermine, spermidine or putrescine (0.01 micromoles) plus NMDA.
Surviving cells in Culture are measured relative to control (100%) as described above. Percent protection is the Cell Survival for the test compound minus the NMDA effect. […] The Effective Protection was calculated as the percent of the Percent Protection (X) divided by the maximal protection value (e.g. X×100/70).

In Vitro Cell Toxicity = settings: rat, cerebellum cell culture
Experimental: as §1, with “minutes. […] Cell viability was determined by the tryptan blue exclusion test.” for “minutes.”
Cells were plated at a density of 200/mm^2 on poly-L-lysine coated surfaces. Poly-L-lysine coated glass coverslips were prepared at least one hour in advance of plating by immersing sterile coverslips in sterile distilled water solution containing 15 microgram/ml poly-L-lysine, and washing in sterile water just prior. to use. […] After three days in culture, the media was replaced with media containing the desired test compound. Each test compound was tested in duplicate. Toxic-dose response was determined for each compound over a range from 0.005-1000 micromole. Four groups were run in each set of experiments;
Nerve cell survival was evaluated by phase contrast microscopy and tryptan blue staining after 24 hours.
Toxic dose-response curves were compiled using the protocol described above.

[2] = system: ischemia induced nerve cell death; settings: gerbils; Gilad G et al.; cited from earlier work
[3] = system: pyramidal neurons throughout the CA1 layer of the anterior hippocampus; experiment: Global Brain Ischemia In Gerbils; type: in vivo, mongolian gerbils; settings: Meriones unguiculatus, Pyramidal neuron, ip, 336 h, read-out: PERCENT PROTECTION
Experimental: Male mongolian gerbils, aged 2.5-5 months, housed 4-8 in a cage, were supplied freely with food and water and maintained at 24° C. with a 12 hour day/night cycle.
For surgery the animals were anesthetized with halothane (1.5% in 100% O2) and the common carotid arteries exposed bilaterally through a midline ventral neck incision. Each artery was clamped for 5 minutes with aneurysm clips to produce global brain ischemia. The anesthesia was discontinued upon clamping. After 5 minutes the clamps were removed and the wound closed with skin clips.
For treatment, the test compound or vehicle was injected intra-peritoneally(ip) in a volume of 50 microlitres of solvent per 10 g body weight. The first injection was given two minutes after clamp removal, and thereafter daily for the next 2 post-operative days (total of 3 injections).
Seven groups each of 4-8 animals were compared:
I. Control; (sham- or unoperated and saline treated),
II. Vehicle treated, unoperated (when solvent is other than saline),
III. Ischemia--untreated or saline treated),
IV. Ischemia--vehicle treated (when solvent is other than saline),
V. Ischemia--Test compound treated, one sub-group per concentration tested,
VI. Ischemia and pentobarbital (40 mg/kg) as positive control).
Analysis of neuronal damage was performed 14 days post-ischemia by counting pyramidal neurons throughout the CA1 layer of the anterior hippocampus in […] thick (paraffin) coronal brain sections stained with hematoxylin and erosin.
Percent Protection values represent the fraction of hippocampi protected from ischemia in a group of animals treated with the stated dose of compound.

[4] = Rattus norvegicus, 24 hours, read-out: SURVIVING CELL IN CULTURE (relative to control, 100%)
[5] = 1.0 mg/kg ip, 3 daily injections, 14 days post-ischemia, fraction of hippocampi protected
[6] = 10.0 mg/kg ip, 3 daily injections, 14 days post-ischemia, fraction of hippocampi protected

SMILES | PERCENT PROTECTION ([1]; positive control, 0.01 micromoles + NMDA) [%] | CC50 at 24 h (In Vitro Cell Toxicity) [µM] | protecting against ischemia induced nerve cell death [2] | responders at 10 mg/kg [3] [%] | PERCENT PROTECTION ([1]; 0.005 μM + NMDA) [%] | PERCENT PROTECTION ([1]; 0.010 μM + NMDA) [%] | PERCENT PROTECTION ([1]; 0.100 μM + NMDA) [%] | responders at 0.1 mg/kg [3] [%] | responders at 1 mg/kg [3] [%] | PERCENT PROTECTION ([1]; 1.000 μM + NMDA) [%] | viability at 0.1 µM [1, 4] [%] | viability at 1 µM ([1]; Rattus norvegicus, 1.000 μM + NMDA (1 mM, 3 hours), 24 hours, read-out: SURVIVING CELL IN CULTURE (relative to control, 100%)) [%] | responders at 1 mg/kg [3, 5] [%] | responders at 10 mg/kg [3, 6] [%] | viability at 0.005 µM [1, 4] [%] | viability at 0.01 µM [1, 4] [%]
NCCCNCCCCNCCCN [Spermine, spermine, reference compound] | 38 | 2 | activity | 60 |  |  |  |  |  |  |  |  |  |  |  | 
N[C@@H]1CCc2ccccc21 [(R)-1-aminoindan, reference compound] |  | 175 |  | 25 | 50 | 0 | -2 | 25 | 25 |  |  |  |  |  |  | 
NCCCCNC1CCc2ccccc21 (centres unmarked) [Compound 2710] |  | 30 |  |  |  |  | 42 |  |  | 40 | 72 | 70 | 25 | 37 |  | 
NCCCCN(CCCCN)C1CCc2ccccc21 (racemic) [Compound 2711, racemic N,N-di(4-amino-n-butyl)-1-aminoindan] |  | 60 |  |  | 44 | 38 | 32 |  | 50 |  | 62 |  |  | 86 | 74 | 68
NCCCCN(CCCN)C1CCc2ccccc21 (centres unmarked) [Compound 2722, N-(4-amino-n-butyl)-N-(3-amino-n-propyl)-1-aminoindan] |  | 20 |  |  | 85 | 57 |  |  |  |  |  |  | 50 | 25 | 115 | 87
NCCCCNCCCNCCCCNC1CCc2ccccc21 (centres unmarked) [Compound 2725] |  | 20 |  |  | 42 | 8 | 2 |  |  |  | 32 |  | 0 | 25 | 72 | 38
NCCCNCCCCNCCCNC1CCc2ccccc21 (centres unmarked) [Compound 2721] |  | 1 |  |  | -2 | -4 |  |  |  |  |  |  | 12 | 67 | 28 | 26
NCCCNCCCCNC1CCc2ccccc21 (centres unmarked) [Compound 2724] |  | 4 |  |  | 65 | 57 |  |  |  |  |  |  | 12 | 56 | 95 | 87
NCCCCNCCCNC1CCc2ccccc21 (centres unmarked) [Compound 2720] |  | 0.2 |  |  | 42 | 8 | 2 |  |  |  | 32 |  |  | 58 | 72 | 38
